Values joined by “and” are separate entries in the source; they are usually repeats but may differ in a detail not shown here. Equal entries are not always repeated. Structures can show the parent of a compound that is named as a salt. Where two headings read alike, the source gives them in different places.
What was measured:
[1] = system: SH-SY5Y neuroblastoma cells; assay: Neuroprotection against H2O2, LDH necrosis assay; type: cell-based; conditions: 300 µM H2O2, 24 h
[2] = system: SH-SY5Y neuroblastoma cells; assay: Neuroprotection against H2O2, MTS viability assay; type: cell-based; conditions: 300 µM H2O2, 24 h
[3] = biological target: T1, human H3R (Homo sapiens, UniProt Q9Y5N1); assay: [3H]Nα-methylhistamine radioligand binding assay in HEK293 cells stably expressing hH3R
T1 construct: expressed in transfected cells; host or cells: HEK293
T1 sequence (Q9Y5N1 whole entry): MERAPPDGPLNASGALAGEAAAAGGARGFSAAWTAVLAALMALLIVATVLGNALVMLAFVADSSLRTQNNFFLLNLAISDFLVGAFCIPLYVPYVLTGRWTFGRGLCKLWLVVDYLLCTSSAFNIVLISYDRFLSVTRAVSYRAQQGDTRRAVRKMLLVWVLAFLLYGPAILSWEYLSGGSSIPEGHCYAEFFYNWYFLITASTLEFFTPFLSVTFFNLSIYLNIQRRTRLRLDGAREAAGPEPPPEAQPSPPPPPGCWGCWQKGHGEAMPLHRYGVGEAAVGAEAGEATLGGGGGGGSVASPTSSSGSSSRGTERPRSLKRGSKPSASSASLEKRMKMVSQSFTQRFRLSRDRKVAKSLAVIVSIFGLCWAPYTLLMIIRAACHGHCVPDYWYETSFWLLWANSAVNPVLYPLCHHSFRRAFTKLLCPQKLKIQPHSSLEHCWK
Procedure: Final compounds were tested for their H3R affinity in a radioligand binding assay using [^3H]N^α-methylhistamine as radioligand in HEK293 cells stably expressing hH3R [25]. […] Affinity to hH3R stably expressed in HEK293 cells was evaluated in a radioligand binding assay as described previously. […] The radioactivity was counted in a MicroBeta Trilux counter (PerkinElmer). Data were fitted to a one-site curve-fitting equation with Prism 6 (GraphPad Software, San Diego, CA, USA) and Ki values were calculated from IC50 values (from at least three experiments performed in duplicates) according to the Cheng−Prusoff equation [52].

[4] = biological target: T2, electric eel AChE (eeAChE) (Electrophorus electricus, UniProt O42275); assay: biochemical; conditions: triplicate independent experiments
T2 construct: purchased Sigma–Aldrich (Steinheim, Germany)
T2 sequence (O42275 24-633): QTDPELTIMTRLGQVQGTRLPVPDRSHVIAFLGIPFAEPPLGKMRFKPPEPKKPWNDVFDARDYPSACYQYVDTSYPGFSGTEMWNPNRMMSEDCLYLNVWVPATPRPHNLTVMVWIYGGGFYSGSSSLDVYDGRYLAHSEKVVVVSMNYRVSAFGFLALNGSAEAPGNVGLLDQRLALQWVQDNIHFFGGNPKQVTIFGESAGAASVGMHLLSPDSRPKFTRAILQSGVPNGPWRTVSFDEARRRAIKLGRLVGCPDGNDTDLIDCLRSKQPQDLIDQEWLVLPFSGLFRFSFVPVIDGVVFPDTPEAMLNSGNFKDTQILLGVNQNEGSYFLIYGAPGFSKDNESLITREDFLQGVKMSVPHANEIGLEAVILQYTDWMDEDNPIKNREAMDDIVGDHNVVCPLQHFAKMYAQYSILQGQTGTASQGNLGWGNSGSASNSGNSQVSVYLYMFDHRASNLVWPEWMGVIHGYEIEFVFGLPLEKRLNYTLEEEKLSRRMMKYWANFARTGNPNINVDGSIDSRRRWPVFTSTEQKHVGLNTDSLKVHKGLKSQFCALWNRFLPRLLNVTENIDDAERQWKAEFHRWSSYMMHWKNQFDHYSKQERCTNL

[5] = biological target: BuChE from equine serum (eqBuChE) (Equus caballus, UniProt P81908); assay: biochemical; type: biochemical; conditions: mean ± SEM, triplicate independent experiments
Sequence of BuChE from equine serum (eqBuChE) (P81908 whole entry): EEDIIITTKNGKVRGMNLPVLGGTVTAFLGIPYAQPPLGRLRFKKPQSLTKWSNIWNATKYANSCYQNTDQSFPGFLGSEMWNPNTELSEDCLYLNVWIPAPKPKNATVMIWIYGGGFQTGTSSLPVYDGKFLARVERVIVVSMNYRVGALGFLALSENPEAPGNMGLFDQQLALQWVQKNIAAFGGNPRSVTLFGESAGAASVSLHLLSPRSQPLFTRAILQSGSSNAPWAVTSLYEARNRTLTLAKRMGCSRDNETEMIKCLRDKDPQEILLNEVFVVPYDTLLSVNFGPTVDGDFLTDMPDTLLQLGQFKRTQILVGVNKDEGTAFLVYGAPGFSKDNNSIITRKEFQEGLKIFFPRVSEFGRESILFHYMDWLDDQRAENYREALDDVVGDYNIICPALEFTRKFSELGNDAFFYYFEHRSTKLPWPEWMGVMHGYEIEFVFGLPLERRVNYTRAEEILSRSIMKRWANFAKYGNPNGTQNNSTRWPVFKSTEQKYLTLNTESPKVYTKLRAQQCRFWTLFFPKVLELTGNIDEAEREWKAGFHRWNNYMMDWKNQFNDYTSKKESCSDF

[6] = biological target: T3, human recombinant AChE (hAChE) (Homo sapiens, UniProt P22303); assay: Ellman's colorimetric assay, hAChE inhibition; type: biochemical
T3 construct: purchased Sigma–Aldrich (Steinheim, Germany)
T3 sequence (P22303 32-614): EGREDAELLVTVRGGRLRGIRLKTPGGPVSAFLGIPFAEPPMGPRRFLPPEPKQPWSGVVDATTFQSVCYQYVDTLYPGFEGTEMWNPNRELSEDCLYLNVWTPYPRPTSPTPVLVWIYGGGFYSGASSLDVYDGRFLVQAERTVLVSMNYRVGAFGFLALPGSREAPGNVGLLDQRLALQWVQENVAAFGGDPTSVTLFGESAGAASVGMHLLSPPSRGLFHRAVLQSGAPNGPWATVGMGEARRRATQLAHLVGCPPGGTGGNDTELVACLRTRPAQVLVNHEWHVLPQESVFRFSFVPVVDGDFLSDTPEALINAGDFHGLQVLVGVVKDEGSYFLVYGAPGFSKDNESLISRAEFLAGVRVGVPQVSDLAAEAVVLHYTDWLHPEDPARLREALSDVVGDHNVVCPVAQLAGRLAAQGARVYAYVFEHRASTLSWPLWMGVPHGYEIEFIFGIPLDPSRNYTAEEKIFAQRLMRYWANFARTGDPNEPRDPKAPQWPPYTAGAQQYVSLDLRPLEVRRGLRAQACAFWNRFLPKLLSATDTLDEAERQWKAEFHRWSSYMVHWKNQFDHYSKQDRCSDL

[7] = biological target: T4, BuChE from human serum (hBuChE) (Homo sapiens, UniProt P06276); assay: Ellman's colorimetric assay, hBuChE inhibition; type: biochemical
T4 construct: Human BuChE from human serum was provided by Vivonics (Bedford, MA, USA); purchased Vivonics (Bedford, MA, USA); host or cells: human serum
T4 sequence (P06276 29-602): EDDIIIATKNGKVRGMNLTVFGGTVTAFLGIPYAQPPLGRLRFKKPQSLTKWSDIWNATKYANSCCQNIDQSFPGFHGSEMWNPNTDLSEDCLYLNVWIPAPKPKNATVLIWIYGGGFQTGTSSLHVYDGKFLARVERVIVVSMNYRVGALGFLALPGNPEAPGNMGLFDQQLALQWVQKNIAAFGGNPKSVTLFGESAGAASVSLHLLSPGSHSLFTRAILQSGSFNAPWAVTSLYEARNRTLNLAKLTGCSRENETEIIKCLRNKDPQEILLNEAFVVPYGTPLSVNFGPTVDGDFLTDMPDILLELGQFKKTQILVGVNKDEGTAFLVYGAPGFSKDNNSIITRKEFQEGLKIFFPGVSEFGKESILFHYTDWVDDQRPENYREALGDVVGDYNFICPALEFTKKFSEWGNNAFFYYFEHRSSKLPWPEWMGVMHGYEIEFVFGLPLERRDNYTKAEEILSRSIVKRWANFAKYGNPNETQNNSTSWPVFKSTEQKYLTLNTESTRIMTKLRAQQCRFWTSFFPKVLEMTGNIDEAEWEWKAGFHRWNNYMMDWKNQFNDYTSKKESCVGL

[8] = biological target: T5, hMAO B (Homo sapiens, UniProt P27338); assay: Fluorometric MAO assay, hMAO B inhibition; type: biochemical; conditions: mean ± SEM of two independent experiments, read-out: hMAO B %Inh. at 1 µM
T5 sequence (P27338 1-520): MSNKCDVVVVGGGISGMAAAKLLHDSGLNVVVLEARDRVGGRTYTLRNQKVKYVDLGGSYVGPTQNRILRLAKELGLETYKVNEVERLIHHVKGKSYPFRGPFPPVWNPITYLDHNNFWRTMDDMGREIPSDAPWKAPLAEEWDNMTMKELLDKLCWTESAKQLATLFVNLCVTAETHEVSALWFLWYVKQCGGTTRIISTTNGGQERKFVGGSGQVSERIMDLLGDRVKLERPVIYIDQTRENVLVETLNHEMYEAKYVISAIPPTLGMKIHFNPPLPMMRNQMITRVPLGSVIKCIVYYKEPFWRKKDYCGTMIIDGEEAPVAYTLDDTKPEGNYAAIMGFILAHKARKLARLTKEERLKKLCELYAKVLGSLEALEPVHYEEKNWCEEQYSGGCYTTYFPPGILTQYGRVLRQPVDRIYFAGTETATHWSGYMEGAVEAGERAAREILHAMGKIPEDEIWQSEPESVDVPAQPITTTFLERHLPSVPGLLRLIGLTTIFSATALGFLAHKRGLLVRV

[9] = biological target: T6, eeAChE (Electrophorus electricus, UniProt O42275); assay: Kinetic study of eeAChE inhibition (Lineweaver-Burk, Cornish-Bowden); type: biochemical, electric eel; conditions: substrate acetylthiocholine
T6 construct: purchased Sigma–Aldrich (Steinheim, Germany)
T6 sequence (O42275 24-633): as the sequence (O42275 24-633) above
Procedure: (§1) The inhibitor was tested in the concentrations giving enzyme activities between 30% and 80%. For each concentration of the inhibitor, substrate (ATC/BTC) was added at concentrations of 0.3, 0.24, 0.18, 0.12, 0.06, and 0.04 mM in the wells. The stock solutions of ATC and BTC (0.5 mM) were prepared in water and diluted before use. Each experiment was performed in triplicate. Vmax and Km values of the Michaelis−Menten kinetics were calculated by nonlinear regression from substrate−velocity curves. Lineweaver–Burk and Cornish–Bowden plots were calculated using linear regression in GraphPad Prism 5 (GraphPad Software, San Diego, CA, USA).

[10] = biological target: eqBuChE (Equus caballus, UniProt P81908); assay: Kinetic study of eqBuChE inhibition (Lineweaver-Burk, Cornish-Bowden); type: biochemical, equine; conditions: substrate butyrylthiocholine
Sequence of eqBuChE (P81908 whole entry): as the sequence (P81908 whole entry) above
Procedure: as §1

[11] = Metabolic stability in mouse liver microsomes; type: in vitro ADME
Procedure: The metabolic stability of 6 was investigated first in silico with the use of MetaSite 6.0.1 software.
The in silico prediction of the most possible metabolic pathways was conducted by MetaSite 6.0.1. Software (Molecular Discovery Ltd., Borehamwood, UK). […] The compound was incubated for 120 min at 37 °C in TRIS-HCl buffer (pH 7.4) with the addition of NADPH Regeneration System (Promega, Madison, WI, USA). The LC/MS analysis and MS/MS fragmentations were used as a tool for the determination of the substrate remaining and the structures of the metabolites.

[12] = system: SH-SY5Y neuroblastoma cells; assay: Highest non-toxic concentration estimated before the neuroprotection assay; type: cell-based
Procedure: […]. however, it was statistically insignificant. […] Statistical significance was calculated against the number of necrotic cells in the H2O2-treated population. Additionally, the MTS test was performed in which the viability of cells was measured.

[13] = system: mice; assay: Passive Avoidance Test, scopolamine-induced amnesia; type: in vivo; design: unit not given here; conditions: mean ± SEM
[14] = system: mice; assay: Formalin test; type: in vivo; conditions: Mus musculus, ip
[15] = PAMPA, triplicate
[16] = in vitro; conditions: PAMPA
[17] = system: hepatoma HepG2 cells; assay: Hepatotoxicity, MTS viability of HepG2 cells; conditions: for concentration decreasing HepG2 cell viability: 72 h incubation, MTS
Procedure: Doxorubicin (DX) at the concentration of 1 μM was used as the reference cytostatic drug.
A multifunctional reader EnSpire (PerkinElmer, Waltham, MA, USA) was used to measure the absorbance.

[18] = biological target: T1, human H3R
[19] = biological target: hH3R; conditions: cited from earlier work
[20] = system: human MAO B; conditions: cited from earlier work
[21] = system: electric eel AChE; design: method as in PMID 33991182, PMID 32882609, PMID 28832188, PMID 19222043, PMID 18396354; conditions: Figure 2; read-out: electric eelAChE IC50; cited from earlier work
[22] = system: equine BuChE; design: method as in PMID 33991182, PMID 32882609, PMID 28832188, PMID 19222043, PMID 18396354; conditions: Figure 2; read-out: equineBuChE IC50; cited from earlier work
[23] = system: human AChE; conditions: cited from earlier work
[24] = system: human BuChE; conditions: cited from earlier work
[25] = design: method as in PMID 32882609; conditions: Figure 1; cited from earlier work
[26] = mean ± SEM, read-out: eeAChE IC50
[27] = values marked *; mean [95% CI]; read-out: hH3R Ki; cited from earlier work
[28] = Figure 2, read-out: humanH3R Ki
[29] = Figure 2, read-out: humanAChE IC50
[30] = read-out: hH3R Ki; values marked *; mean [95% CI]; cited from earlier work
[31] = Figure 2, read-out: humanBuChE IC50

C[C@@H]1NCCc2cc(O)c(O)cc21 [salsolinol, reference compound]
effect on necrosis (LDH test) ([1]; 50 µM): lowered the number of necrotic cells to the control level
effect on viability (MTS test) ([2]; 50 µM): statistically significantly increased the number of living cells

O=C(O)C(=O)O.O=C(c1ccc(F)cc1)c1ccc(OCCCCCN2CCCCC2)cc1 [Compound 6, (4-Fluorophenyl) (4-((5-(piperidin-1-yl)pentyl)oxy)phenyl)methanone hydrogen oxalate]
Ki [3]: 8 nM
IC50 [4, 26]: 2310 nM
IC50 [5]: 170 nM and 172 nM
IC50 [6]: 9590 nM
IC50 [7]: 1160 nM
inhibition at 1 µM [8]: 25%
mechanism of eeAChE inhibition [9]: non-competitive
mechanism of eqBuChE inhibition [10]: mix type
% biotransformed ([11]; MLMs, 120 min, UPLC): around 34%
% Remaining ([11]; MLMs, 120 min incubation): 65.95%
Metabolic Pathway ([11]; MLMs, metabolites M1, M2, M3): reduction of carbonyl group hydroxylation reduction of carbonyl group, hydroxylation
metabolic stability (in words) ([11]; mouse liver microsomes): moderate metabolic stability
remaining at 2 h ([11]; mouse, mouse liver microsomes, pH 7.4, MLMs, 120 min incubation): 66%
effect on necrosis (LDH test) ([1]; 10 µM): slight inhibition of the necrosis process
effect on viability (MTS test) ([2]; 10 µM): no increase in the viability
highest non-toxic concentration [12]: 10 µM
latency time in the retention trial ([13]; 15 mg/kg i.p. in scopolamine-treated mice): 47.07 ± 17.56
latency time in the retention trial ([13]; 15 mg/kg i.p., without scopolamine): 151.89 ± 5.46
latency time in the retention trial ([13]; 30 mg/kg i.p. in scopolamine-treated mice): 51.56 ± 21.17
ED50 ([14]; 0–5 min after formalin, read-out: ED50 phase I (acute pain)): 20.9 mg/kg
ED50 ([14]; 15–30 min after formalin, read-out: ED50 phase II (inflammatory pain)): 17.5 mg/kg
Pe ± SD [15]: 6.3 ± 0.6 10^−6 cm/s
Papp [16]: 6.3 ×10⁻⁶ cm/s
concentration decreasing HepG2 cell viability [17]: ≥ 10000 nM
concentration range with lack of hepatotoxicity effect ([17]; HepG2 cells): 100 to 1000 nM

Cn1c(=O)c2c(ncn2C)n(C)c1=O [Caffeine, reference compound]
Pe ± SD [15]: 15.1 ± 0.4 10^−6 cm/s

CC1CCCN(CCCCCCOc2cccc(C(=O)c3ccccc3)c2)C1 (stereo not shown) [Compound 18, (3-((6-(3-Methylpiperidin-1-yl)hexyl)oxy)phenyl)(phenyl)methanone hydrogen oxalate]
IC50 [4, 26]: 2000 ± 30 nM
IC50 [5]: 2900 ± 77 nM
inhibition at 1 µM [8]: 27%
Ki [18, 27]: 110 nM

O=c1c2ccccc2oc2ccc(OCCCCCCN3CCCCCC3)cc12 [compound II]
Ki [19, 28]: 500 nM
IC50 ([20]; Figure 2, read-out: humanMAOB IC50): 390 nM
IC50 [21]: 310 nM
IC50 [22]: 610 nM

O=C(c1ccccc1)c1cccc(OCCCCCCN2CCCCCC2)c1 [Compound 32, (3-((6-(Azepan-1-yl)hexyl)oxy)phenyl)(phenyl)methanone hydrogen oxalate]
IC50 [4, 26]: 1550 ± 34 nM
IC50 [5]: 616 ± 2 nM
inhibition at 1 µM [8]: 17%
Ki [18, 27]: 70 nM

COc1cccc2c1C(=O)c1c(O)c3c(c(O)c1C2=O)C[C@@](O)(C(=O)CO)C[C@@H]3O[C@H]1C[C@H](N)[C@H](O)[C@H](C)O1 [Doxorubicin, reference compound]
concentration decreasing HepG2 cell viability [17]: ≤ 1000 nM

CCN(CC)Cc1cc2c(=O)c3c(O)cccc3oc2cc1OCC=C(C)C [compound III]
IC50 [21]: 2600 nM
IC50 [22]: 510 nM

O=c1c2ccccc2oc2ccc(OCCCCCN3CCCCCC3)cc12 [Compound I]
Ki ([19]; Figure 1, read-out: hH3R Ki): 170 nM
IC50 ([23]; Figure 1, read-out: hAChEI IC50): 390 nM
IC50 ([24]; Figure 1, read-out: hBuChE IC50): 1280 nM
IC50 ([20]; Figure 1, read-out: hMAO B IC50): 780 nM
in vivo activity [25]: significant memory-enhancing effect

O=C(c1ccccc1)c1cccc(OCCCCCCN2CCCCC2)c1 [Compound 8, Phenyl (3-((6-(piperidin-1-yl)hexyl)oxy)phenyl)methanone hydrogen oxalate]
IC50 [4, 26]: 3630 ± 111 nM
IC50 [5]: 2100 ± 60 nM
inhibition at 1 µM [8]: 15%
Ki [18, 27]: 76 nM

CC1CCCN(CCCCCCOc2ccc(C(=O)c3ccccc3)cc2)C1 (stereo not shown) [Compound 19, (4-((6-(3-Methylpiperidin-1-yl)hexyl)oxy)phenyl)(phenyl)methanone hydrogen oxalate]
IC50 [4, 26]: 2110 ± 50 nM
IC50 [5]: 1980 ± 34 nM
inhibition at 1 µM [8]: 7%
Ki [18, 27]: 53 nM

c1cc2c(cc1OCCCCCCN1CCCCC1)CN1CCCC1=N2 [compound IV]
Ki [19, 28]: 110 nM
IC50 [23, 29]: 39.1 nM
IC50 [22]: 1300 nM

O=C(c1ccccc1)c1ccc(OCCCCCN2CCCCCC2)cc1 [Compound 28, (4-((5-(Azepan-1-yl)pentyl)oxy)phenyl)(phenyl)methanone hydrogen oxalate]
IC50 ([4]; eeAChE IC50, mean ± SEM): 4630 ± 100 nM
IC50 [5]: 678 ± 7 nM
inhibition at 1 µM [8]: 29%
Ki [18, 30]: 39 nM

O=C(c1ccccc1)c1ccc(OCCCCCCN2CCCCCC2)cc1 [Compound 33, (4-((6-(Azepan-1-yl)hexyl)oxy)phenyl)(phenyl)methanone hydrogen oxalate]
IC50 [4, 26]: 1810 ± 38 nM
IC50 [5]: 1280 ± 38 nM
inhibition at 1 µM [8]: 23%
Ki [18, 30]: 41 nM

xanthostigmine
IC50 [23, 29]: 0.3 nM
IC50 [24, 31]: 48 nM

COc1ccc(C(=O)c2cccc(CN(C)Cc3ccccc3)c2)cc1OC [compound V]
IC50 [23, 29]: 460 nM
IC50 [24, 31]: 60700 nM

CC1CCCN(CCCCCOc2ccc(C(=O)c3ccccc3)cc2)C1 (stereo not shown) [Compound 14, (4-((5-(3-Methylpiperidin-1-yl)pentyl)oxy)phenyl)(phenyl)methanone hydrogen oxalate]
IC50 [4, 26]: 3180 ± 83 nM
IC50 [5]: 3780 ± 61 nM
inhibition at 1 µM [8]: 9%
Ki [18, 27]: 40 nM

O=C(c1ccccc1)c1ccc(OCCCCCCN2CCCCC2)cc1 [Compound 9, Phenyl (4-((6-(piperidin-1-yl)hexyl)oxy)phenyl)methanone hydrogen oxalate]
IC50 [4, 26]: 3730 ± 85 nM
IC50 [5]: 1780 ± 34 nM
inhibition at 1 µM [8]: 9%
Ki [18, 27]: 41 nM

Reference: PMC9822066 (Molecules, 2022)
